The test system of this test is rice blast fungus. Format: cell-based. Particulars: for Preventive value: 1,000 μl on oatmeal culture medium, 25° C. for 7 days, elongation length of hyphae vs without treatment.

Each structure is given as a SMILES string. Read-outs that look alike come from different tables or passages of the source.

For the compound `COc1nc(-c2ccc3cnccc3n2)nc(F)c1C(F)(F)F` [Example 4, 6-fluoro-4-methoxy-2-(2-(1,6-naphthyridyl))-5-trifluoromethylpyrimidine], under “conclusion from the results in Table 1”, the “control activity against rice blast fungus” value is “has a control activity against rice blast fungus”. Further, the Preventive value by setting is: (test solution concentration 1000 ppm) 76; (test solution concentration 2000 ppm) 100.

The values are drawn from US20230096085A1 (priority 2020, published 2023).
